Source: patent US8071355B2, “Polyhydroxyalkanoate production by coenzyme A-dependent aldehyde dehydrogenase pathways” (Metabolix, Inc., priority 2002, dated 2011)

Tested on: E. coli strain MBX1335
Conditions: for average OD-600 reached: E. coli MBX1335, 10 g/L in medium, cultures allowed to continue to grow; for inhibition of growth rate: E. coli MBX1335, minimal glucose medium, 2, 5 and 10 g/L, triplicate, FIG. 2
Experimental: MBX1335 was grown overnight in LB medium supplemented with 25 μg/mL chloramphenicol. […] The base medium in these 3-mL cultures contained, per liter: 5 g glucose; 1 mmol MgSO4; 10 mg thiamine; 25.5 mmol Na2HPO4; 33.3 mmol K2HPO4; 27.2 mmol KH2PO4; 2.78 mg FeSO4.7H2O; 1.98 mg MnCl2.4H2O; 2.81 mg CoSO4.7H2O; 0.17 mg CuCl2.2H2O; 1.67 mg CaCl2.2H2O; 0.29 mg ZnSO4.7H2O; 0.1 g casein hydrolysate; and 25 μg chloramphenicol.

CCC(=O)[O-].[Na+] [propionate, sodium propionate]
average OD-600 reached: 5.0 | inhibition of growth rate: propionate inhibits the rate of growth substantially more than 1-propanol

1-propanol
average OD-600 reached: 3.8 | inhibition of growth rate: propionate inhibits the rate of growth substantially more than 1-propanol
